Measurements published in ChEMBL document CHEMBL1201862, “PubChem BioAssay data set” (2004).
Active and inactive are the calls of the source.

Assays:
[1] = bead-based luminescence quenchers, dual-tagged ARNT – biochemical, AlphaScreen, cherry-pick, artefact control for ARNT-TACC3 interaction inhibitor project, dose response (AID 651705); type: functional;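 note: AlphaScreen bead proximity signal that flags compounds interfering with the detection technology; potency reflects signal decrease which marks the compound as an assay artifact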
Vero = assay: cells; type: functional; details: Chlorocebus sabaeus
[2] = target: Beta-2 adrenergic receptor (Homo sapiens, UniProt P07550); assay: ADRB2 activation measured by internalization – cell-based, FAP fluorogen, flow cytometry, cherry pick 1, dose response (AID 588763); type: functional
Chain of Beta-2 adrenergic receptor (P07550 whole entry): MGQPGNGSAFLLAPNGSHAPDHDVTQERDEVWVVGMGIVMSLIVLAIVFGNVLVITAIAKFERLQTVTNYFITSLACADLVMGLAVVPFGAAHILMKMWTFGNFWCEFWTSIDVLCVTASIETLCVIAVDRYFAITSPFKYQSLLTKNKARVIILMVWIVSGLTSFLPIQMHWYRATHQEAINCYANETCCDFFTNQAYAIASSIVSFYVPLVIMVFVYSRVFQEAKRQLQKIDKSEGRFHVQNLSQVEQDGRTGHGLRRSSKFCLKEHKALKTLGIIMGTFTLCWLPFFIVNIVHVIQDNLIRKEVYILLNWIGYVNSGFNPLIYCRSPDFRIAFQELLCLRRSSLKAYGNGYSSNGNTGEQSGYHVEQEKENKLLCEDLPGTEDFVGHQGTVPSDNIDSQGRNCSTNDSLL

Protein skinhead-1 = target: T1, Protein skinhead-1 (Caenorhabditis elegans, UniProt P34707); type: functional
T1 sequence (P34707 whole entry): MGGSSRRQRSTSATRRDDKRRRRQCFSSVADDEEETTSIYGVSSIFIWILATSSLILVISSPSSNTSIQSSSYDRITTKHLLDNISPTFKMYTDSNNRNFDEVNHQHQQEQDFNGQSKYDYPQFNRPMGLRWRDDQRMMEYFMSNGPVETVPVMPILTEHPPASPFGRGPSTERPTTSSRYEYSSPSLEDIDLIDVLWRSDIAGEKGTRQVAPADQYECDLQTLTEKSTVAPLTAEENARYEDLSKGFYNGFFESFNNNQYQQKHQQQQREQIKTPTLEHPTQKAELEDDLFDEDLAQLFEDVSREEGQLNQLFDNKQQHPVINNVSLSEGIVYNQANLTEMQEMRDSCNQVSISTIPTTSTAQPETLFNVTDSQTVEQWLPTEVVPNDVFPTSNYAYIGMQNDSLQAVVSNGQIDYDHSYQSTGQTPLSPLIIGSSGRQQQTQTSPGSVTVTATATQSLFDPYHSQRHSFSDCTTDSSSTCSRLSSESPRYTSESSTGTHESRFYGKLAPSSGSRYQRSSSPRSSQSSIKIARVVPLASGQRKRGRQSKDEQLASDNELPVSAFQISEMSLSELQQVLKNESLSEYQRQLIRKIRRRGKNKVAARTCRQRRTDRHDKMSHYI

[3] = cytotoxicity toward MDA-MB-231 breast cancer cells – cell-based, CellTiter-Glo luminescence, cherry-pick, cytotoxicity control for RAD54 inhibitor project, dose response (AID 651692); type: functional
[4] = target: T2, DNA repair and recombination protein RAD54-like (Homo sapiens, UniProt Q92698); assay: RAD54 Holliday junction migration blockers – biochemical, fluorescence, cherry-picked samples, dose series, confirmation (AID 651657); type: functional
T2 sequence (Q92698 whole entry): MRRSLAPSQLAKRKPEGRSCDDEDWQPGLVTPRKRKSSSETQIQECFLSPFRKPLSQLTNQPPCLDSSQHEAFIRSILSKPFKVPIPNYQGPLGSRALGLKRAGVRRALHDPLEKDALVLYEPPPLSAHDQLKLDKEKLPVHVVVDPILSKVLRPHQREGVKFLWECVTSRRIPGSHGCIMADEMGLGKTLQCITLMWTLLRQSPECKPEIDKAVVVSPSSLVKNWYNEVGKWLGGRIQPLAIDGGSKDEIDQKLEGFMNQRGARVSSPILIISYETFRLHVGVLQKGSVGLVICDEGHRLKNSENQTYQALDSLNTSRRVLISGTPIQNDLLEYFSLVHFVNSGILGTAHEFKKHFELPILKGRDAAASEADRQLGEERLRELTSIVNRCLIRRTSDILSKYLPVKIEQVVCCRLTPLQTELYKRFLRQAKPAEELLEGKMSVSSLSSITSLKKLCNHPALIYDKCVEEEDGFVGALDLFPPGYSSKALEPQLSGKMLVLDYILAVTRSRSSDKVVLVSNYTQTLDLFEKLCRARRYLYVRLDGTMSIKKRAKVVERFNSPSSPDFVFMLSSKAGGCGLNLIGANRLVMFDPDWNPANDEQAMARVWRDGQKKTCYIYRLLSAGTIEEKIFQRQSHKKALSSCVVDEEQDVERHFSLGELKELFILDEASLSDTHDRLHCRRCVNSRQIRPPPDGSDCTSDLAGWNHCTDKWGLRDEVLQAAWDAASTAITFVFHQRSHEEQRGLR

[5] = target: T3, DNA repair protein RAD52 homolog (Homo sapiens, UniProt P43351); type: functional, biochemical
T3 sequence (P43351 whole entry): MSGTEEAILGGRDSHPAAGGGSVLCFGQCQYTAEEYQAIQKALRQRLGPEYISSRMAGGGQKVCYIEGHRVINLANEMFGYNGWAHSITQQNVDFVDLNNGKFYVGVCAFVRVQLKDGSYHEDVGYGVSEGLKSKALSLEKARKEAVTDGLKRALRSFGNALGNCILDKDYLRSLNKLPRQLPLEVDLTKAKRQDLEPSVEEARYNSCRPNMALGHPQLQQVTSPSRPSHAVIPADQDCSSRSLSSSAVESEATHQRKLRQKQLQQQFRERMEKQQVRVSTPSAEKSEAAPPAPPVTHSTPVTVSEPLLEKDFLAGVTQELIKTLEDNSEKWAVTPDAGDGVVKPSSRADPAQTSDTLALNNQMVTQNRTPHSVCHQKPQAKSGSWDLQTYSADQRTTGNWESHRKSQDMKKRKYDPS

[6] = NIH-3T3 fibroblast cytotoxicity, dose response, cytotoxicity control, cell-based, fluorescence, Alamar Blue, secondary assay (AID 2327); type: functional;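 note: NIH-3T3 mouse fibroblasts cultured with fluconazole at 8 µg/mL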
[7] = tested on: Streptococcus sp. 'group A'; assay: Streptococcus pyogenes SK(-)GAS viability under kanamycin – luminescence, BacTiterGlo, confirmation, counter-screen for streptokinase expression inhibitor project, dose response (AID 1900); type: functional, organism-based
BJ [8] = assay: BJ-TERT fibroblast viability loss – cell-based, RAS-independent, luminescence, dose response (AID 1933); type: functional; details: Homo sapiens
[9] = target: Luciferin 4-monooxygenase (Photinus pyralis, UniProt P08659); assay: Counter Screen for Luciferase-based Assay Positives. [Related pubchem assays: 620, 618, 411 ]
Chain of Luciferin 4-monooxygenase (P08659 whole entry): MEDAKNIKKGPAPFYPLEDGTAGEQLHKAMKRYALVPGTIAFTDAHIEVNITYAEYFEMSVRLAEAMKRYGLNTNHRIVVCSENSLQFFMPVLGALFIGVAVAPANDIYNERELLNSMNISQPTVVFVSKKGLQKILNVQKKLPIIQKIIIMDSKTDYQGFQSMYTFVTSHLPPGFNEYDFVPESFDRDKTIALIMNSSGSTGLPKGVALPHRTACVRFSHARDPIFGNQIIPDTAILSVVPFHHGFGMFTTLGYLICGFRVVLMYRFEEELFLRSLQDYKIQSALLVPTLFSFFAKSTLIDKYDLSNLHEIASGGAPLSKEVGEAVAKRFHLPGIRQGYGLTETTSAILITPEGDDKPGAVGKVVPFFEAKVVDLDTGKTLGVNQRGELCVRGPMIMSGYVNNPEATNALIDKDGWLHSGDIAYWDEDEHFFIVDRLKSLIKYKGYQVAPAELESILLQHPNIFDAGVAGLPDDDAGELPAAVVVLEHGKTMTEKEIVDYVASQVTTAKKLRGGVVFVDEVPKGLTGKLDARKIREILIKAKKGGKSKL

cells [10] = type: functional, cell-based
Streptokinase A = target: T4, Streptokinase A (Streptococcus pyogenes serotype M1, UniProt P10520); assay: viability-normalized secreted streptokinase activity reduction – plasminogen activation absorbance, OD405, dose response (AID 1914); type: functional, Streptococcus pyogenes M1 GAS;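 note: secreted streptokinase activity via plasminogen activation per viability signal from cell pellet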
T4 sequence (P10520 whole entry): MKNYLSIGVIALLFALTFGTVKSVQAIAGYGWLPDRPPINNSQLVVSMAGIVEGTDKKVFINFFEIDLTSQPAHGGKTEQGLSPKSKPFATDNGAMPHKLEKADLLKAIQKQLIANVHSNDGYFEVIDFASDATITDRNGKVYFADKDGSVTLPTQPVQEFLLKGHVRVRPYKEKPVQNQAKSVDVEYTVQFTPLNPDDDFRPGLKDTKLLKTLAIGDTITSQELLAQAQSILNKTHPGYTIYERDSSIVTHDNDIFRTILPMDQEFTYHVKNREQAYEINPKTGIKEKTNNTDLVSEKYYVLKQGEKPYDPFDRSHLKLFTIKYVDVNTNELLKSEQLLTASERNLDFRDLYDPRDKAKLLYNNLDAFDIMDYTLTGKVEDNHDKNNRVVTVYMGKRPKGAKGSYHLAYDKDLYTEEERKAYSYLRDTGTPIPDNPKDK

BJ [11] = assay: cells; type: functional, cell-based; details: Homo sapiens
[12] = fluconazole-exposed Candida albicans growth modulators – fluorescence, retest, confirmation (AID 2467); type: functional, cell-based
cells [13] = type: functional, cell-based; remark: listed apart in the source
[14] = viability of PTEN-deleted HCT116 cells – cell-based, HCT116 PTEN knockout, dose response (AID 1047); type: functional;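 note: HCT116 colon tumor cells with PTEN knocked out; cells exposed to compound for 60 hours before readout; potency for loss of cell viability measured by luminescence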
[15] = target: T5, Serine/threonine-protein phosphatase (Candida dubliniensis (strain CD36 / CBS 7987 / NCPF 3949 / NRRLY-17841) (Yeast), UniProt B9W6M3); assay: blockers of CaCl2-induced CDRE-lacZ signaling – S. cerevisiae, luminescence, secondary, dose response (AID 2388); type: functional, cell-based;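 note: yeast reporter cells carrying a calcineurin-responsive lacZ construct stimulated with calcium chloride; luminescent beta-galactosidase reporter signal in whole cells rather than isolated phosphatase activity; potency for inhibition where a drop in reporter signal means calcineurin blockade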
T5 sequence (B9W6M3 whole entry): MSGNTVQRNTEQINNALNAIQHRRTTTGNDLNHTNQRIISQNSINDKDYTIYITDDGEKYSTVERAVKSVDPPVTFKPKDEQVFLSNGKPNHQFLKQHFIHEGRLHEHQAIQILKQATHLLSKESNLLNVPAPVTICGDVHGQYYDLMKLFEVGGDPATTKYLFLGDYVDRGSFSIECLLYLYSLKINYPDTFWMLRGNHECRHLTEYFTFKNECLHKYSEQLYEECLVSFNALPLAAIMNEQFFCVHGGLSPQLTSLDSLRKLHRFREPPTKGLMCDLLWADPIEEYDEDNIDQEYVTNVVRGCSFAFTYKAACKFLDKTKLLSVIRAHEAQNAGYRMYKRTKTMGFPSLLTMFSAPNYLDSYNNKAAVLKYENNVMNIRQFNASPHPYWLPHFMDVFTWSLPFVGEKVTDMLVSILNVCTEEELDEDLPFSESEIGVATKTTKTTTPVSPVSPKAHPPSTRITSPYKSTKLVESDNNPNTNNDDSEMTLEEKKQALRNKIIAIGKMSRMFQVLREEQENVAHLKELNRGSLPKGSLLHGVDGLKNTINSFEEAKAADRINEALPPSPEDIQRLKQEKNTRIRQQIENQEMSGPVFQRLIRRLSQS

HT-1080 = assay: HT1080 cell viability loss – fluorescence readout (AID 620); type: functional, cell-based; details: Homo sapiens
[16] = viability of HCT116 lacking mutant beta-catenin – cell-based, human colon tumor, dose response (AID 1045); type: functional;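 note: HCT116 colon tumor cells with beta catenin knocked out; cells exposed to compound for 60 hours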
BJ [17] = assay: BJ-TERT-LT-ST fibroblast viability loss – cell-based, RAS-independent, luminescence, dose response (AID 1935); type: functional; details: Homo sapiens;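 note: BJ fibroblasts immortalized with TERT plus LT and ST oncogenes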
[18] = DRD fibroblast viability loss – cell-based, non-viral oncogenic, luminescence, dose response (AID 1934); type: functional; details: Homo sapiens
Streptococcus = assay: GAS UMAA2166 growth inhibition – luminescence, BacTiterGlo, counter-screen for streptokinase expression inhibitor project, dose response (AID 1915); type: functional, organism-based;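 note: potency for reduction of bacterial viability or growth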
Nonstructural protein 1 = Nonstructural protein 1 (Influenza A virus, UniProt Q194T2); type: functional, Influenza A virus (A/California/07/2009(H1N1))
Chain of Nonstructural protein 1 (Q194T2 whole entry): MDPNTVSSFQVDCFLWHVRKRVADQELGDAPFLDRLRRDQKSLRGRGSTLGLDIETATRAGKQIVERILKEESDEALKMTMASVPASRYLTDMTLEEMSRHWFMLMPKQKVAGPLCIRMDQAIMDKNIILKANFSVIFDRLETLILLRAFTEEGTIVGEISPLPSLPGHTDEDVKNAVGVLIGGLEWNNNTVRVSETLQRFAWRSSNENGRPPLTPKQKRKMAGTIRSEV

[19] = target: Heat shock protein HSP 90-alpha (Homo sapiens, UniProt P07900); type: functional, organism-based
[20] = target: ATP-dependent molecular chaperone HSP82 (Candida albicans (strain WO-1) (Yeast), UniProt C4YTQ8); assay: steroid-induced GRE reporter decrease in yeast – S. cerevisiae, luminescence, Hsp90 inhibitor project, dose response (AID 2400); type: functional, cell-based;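 note: beta-galactosidase luminescence from glucocorticoid response element reporter as proxy for Hsp90 function; inhibitor potency where signal loss means Hsp90 inhibition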
Chain of ATP-dependent molecular chaperone HSP82 (C4YTQ8 whole entry): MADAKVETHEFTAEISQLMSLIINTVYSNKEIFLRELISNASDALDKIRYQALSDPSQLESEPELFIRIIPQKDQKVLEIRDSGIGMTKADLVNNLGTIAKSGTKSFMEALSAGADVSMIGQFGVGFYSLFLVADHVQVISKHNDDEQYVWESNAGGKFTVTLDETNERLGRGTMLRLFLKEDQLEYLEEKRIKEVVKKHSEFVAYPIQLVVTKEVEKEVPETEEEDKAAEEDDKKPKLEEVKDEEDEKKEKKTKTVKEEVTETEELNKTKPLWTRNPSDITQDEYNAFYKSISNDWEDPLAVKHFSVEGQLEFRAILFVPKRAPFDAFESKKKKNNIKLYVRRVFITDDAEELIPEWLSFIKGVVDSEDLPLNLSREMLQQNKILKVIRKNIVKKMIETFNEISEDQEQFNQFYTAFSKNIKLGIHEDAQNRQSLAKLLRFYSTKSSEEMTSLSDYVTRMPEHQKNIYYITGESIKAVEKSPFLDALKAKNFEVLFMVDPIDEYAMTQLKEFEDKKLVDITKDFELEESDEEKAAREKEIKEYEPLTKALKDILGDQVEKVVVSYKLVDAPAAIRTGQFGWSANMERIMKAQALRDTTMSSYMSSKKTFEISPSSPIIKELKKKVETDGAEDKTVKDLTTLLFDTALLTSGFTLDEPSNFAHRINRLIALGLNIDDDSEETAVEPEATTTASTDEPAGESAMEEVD

[21] = mammalian cell viability loss – Alamar Blue, dry powder, cytotoxicity control for antifungal single agent project, dose response (AID 602188); type: functional, cell-based
[22] = target: Tyrosine-protein phosphatase non-receptor type 11 (Homo sapiens, UniProt Q06124); assay: PTPN11 enzyme inhibitors – biochemical, selectivity assay for STEP inhibitor project, dose response (AID 602367); type: functional; details: read-out: IC50_Mean
Chain of Tyrosine-protein phosphatase non-receptor type 11 (Q06124 whole entry): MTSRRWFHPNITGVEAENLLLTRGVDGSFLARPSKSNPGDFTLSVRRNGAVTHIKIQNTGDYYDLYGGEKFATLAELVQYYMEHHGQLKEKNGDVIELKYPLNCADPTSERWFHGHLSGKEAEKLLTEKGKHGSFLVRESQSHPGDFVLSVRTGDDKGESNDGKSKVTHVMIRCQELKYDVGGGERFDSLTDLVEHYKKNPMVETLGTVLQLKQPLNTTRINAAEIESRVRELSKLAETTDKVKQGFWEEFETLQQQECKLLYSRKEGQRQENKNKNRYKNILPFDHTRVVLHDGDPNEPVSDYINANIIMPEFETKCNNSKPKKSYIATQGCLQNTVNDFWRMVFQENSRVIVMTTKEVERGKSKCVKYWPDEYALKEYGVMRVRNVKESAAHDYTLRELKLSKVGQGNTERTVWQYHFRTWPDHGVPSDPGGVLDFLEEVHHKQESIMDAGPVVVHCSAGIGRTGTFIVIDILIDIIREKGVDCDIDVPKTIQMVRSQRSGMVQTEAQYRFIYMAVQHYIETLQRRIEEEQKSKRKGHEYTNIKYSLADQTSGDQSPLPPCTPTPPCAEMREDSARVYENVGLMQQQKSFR

[23] = target: Tyrosine-protein phosphatase non-receptor type 5 (Homo sapiens, UniProt P54829); assay: PTPN5 enzyme inhibition – biochemical, fluorescence intensity, uHTS hits, confirmation (AID 602372); type: functional; details: read-out: IC50_Mean
Chain of Tyrosine-protein phosphatase non-receptor type 5 (P54829 whole entry): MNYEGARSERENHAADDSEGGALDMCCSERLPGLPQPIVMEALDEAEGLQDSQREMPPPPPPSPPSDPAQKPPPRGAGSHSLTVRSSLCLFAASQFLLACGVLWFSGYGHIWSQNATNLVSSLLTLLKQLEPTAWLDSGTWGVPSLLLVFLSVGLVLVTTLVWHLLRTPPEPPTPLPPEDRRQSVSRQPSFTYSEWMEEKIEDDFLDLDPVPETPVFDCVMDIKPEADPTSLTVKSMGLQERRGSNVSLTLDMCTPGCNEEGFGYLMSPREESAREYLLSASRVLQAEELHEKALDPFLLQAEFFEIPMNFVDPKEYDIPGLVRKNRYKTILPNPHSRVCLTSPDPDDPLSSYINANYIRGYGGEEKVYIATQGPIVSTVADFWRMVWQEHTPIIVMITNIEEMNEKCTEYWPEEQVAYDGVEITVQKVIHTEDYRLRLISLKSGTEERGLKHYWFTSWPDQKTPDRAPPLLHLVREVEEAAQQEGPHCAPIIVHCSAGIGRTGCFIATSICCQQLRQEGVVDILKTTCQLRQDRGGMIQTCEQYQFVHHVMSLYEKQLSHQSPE

[24] = target: Dual specificity protein phosphatase 3 (Homo sapiens, UniProt P51452); assay: VHR phosphatase inhibition, dose response, selectivity assay for STEP inhibitor project, biochemical (AID 602374); type: functional; details: read-out: IC50_Mean
Chain of Dual specificity protein phosphatase 3 (P51452 whole entry): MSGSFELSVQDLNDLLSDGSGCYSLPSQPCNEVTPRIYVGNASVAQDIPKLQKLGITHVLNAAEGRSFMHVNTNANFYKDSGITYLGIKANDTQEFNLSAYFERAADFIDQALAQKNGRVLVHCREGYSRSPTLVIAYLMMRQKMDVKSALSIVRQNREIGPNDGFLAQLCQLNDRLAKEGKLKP

[25] = viability of uninfected HEp-2 cells – cell-based, HTS, cytotoxicity control for RSV inhibitor project, dose response (AID 2410); type: functional; details: human respiratory syncytial virus
[26] = target: Mitochondrial peptide methionine sulfoxide reductase (Bos taurus, UniProt P54149); type: functional;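 note: absorbance read-out, biochemical high-throughput dose-response screen for MsrA inhibitors, confirmatory; recombinant bovine MsrA coupled to E. coli TrxB with NADPH and selenocystamine; potency is for inhibitors of MsrA activity on DMSO substrate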
Chain of Mitochondrial peptide methionine sulfoxide reductase (P54149 whole entry): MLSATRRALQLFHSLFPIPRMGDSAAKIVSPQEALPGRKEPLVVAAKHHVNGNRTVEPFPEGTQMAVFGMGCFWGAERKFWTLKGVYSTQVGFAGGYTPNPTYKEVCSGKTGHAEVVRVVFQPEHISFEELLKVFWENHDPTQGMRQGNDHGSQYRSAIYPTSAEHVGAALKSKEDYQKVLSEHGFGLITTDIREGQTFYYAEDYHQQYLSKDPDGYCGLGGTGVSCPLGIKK

Interleukin-8 [27] = target: T6, Interleukin-8 (Homo sapiens, UniProt P10145); assay: Dose Response confirmation of uHTS small molecule hits for cystic fibrosis induced NFkb Inhibitors in a TNFa-induced IL8 counterscreen.; type: functional; details: read-out: IC50_Mean
T6 sequence (P10145 whole entry): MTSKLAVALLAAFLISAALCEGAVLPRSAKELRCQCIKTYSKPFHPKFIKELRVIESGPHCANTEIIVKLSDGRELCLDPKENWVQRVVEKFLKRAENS

Interleukin-8 [28] = target: T6, Interleukin-8; assay: Dose Response confirmation of uHTS small molecule hits for cystic fibrosis induced NFkb Inhibitors in a PAF-induced IL8 counterscreen.; type: functional; details: read-out: IC50_Mean
[29] = target: Adenosylmethionine-8-amino-7-oxononanoate aminotransferase (Mycobacterium tuberculosis, UniProt P9WQ81); assay: Mycobacterium tuberculosis BioA enzyme inhibitor Measured in Biochemical System Using Plate Reader - 2163-02_Inhibitor_Dose_CherryPick_Activity.; type: functional, Mycobacterium tuberculosis UT205
Chain of Adenosylmethionine-8-amino-7-oxononanoate aminotransferase (P9WQ81 whole entry): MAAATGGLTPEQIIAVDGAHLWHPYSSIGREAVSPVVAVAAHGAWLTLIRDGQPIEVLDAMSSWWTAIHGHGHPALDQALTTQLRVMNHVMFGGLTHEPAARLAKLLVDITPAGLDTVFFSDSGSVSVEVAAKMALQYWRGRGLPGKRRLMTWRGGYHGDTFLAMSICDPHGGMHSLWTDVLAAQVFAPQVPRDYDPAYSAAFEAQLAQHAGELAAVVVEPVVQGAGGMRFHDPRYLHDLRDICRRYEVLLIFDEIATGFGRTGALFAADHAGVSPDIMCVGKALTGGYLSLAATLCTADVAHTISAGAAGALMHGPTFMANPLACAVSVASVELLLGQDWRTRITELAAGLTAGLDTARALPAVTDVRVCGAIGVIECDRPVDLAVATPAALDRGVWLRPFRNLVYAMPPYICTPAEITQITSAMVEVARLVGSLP

O=C(CSc1cccc2cccnc12)Nc1cc(C(=O)O)cc(C(=O)O)c1
AC50 [1]: 104 µM (active)

CN(C)CCNc1ncnc2c1sc1nc(N3CCCC3)c3c(c12)CC(C)(C)OC3
CC50 (Vero): 17.8 µM (active)
EC50 [2]: 4.02 µM (active)
IC50 (Protein skinhead-1): > 100 µM (inactive)
AC50 [3]: 34.7 µM (active)
AC50 [4]: 9.5 µM (active)
AC50 [5]: 6.55 µM (active)

Oc1c(CN2CCc3ccccc3C2)cc(Cl)c2cccnc12
EC50 [6]: > 160 µM (inactive)
EC50 [7]: 2.95 µM (active)
EC50 (BJ [8]): 8.6 µM (active)
EC50 [9]: 17.7 µM (active)
EC50 (cells [10]): > 350 µM (not active)
EC50 (Streptokinase A): > 150 µM (not active)
EC50 (BJ [11]): 10.9 µM (active)
EC50 [12]: 0.712 µM (active)
EC50 (cells [13]): > 350 µM (not active)
EC50 [14]: 1.03 µM (active)
EC50 [15]: > 180 µM (inactive)
EC50 (HT-1080): 22.2 µM (active)
EC50 [16]: 0.973 µM (active)
EC50 (BJ [17]): 8.45 µM (inconclusive)
EC50 [18]: 6.01 µM (active)
EC50 (Streptococcus): 9.33 µM (active)
IC50 (Nonstructural protein 1): 11.1 µM (active)
AC50 [19]: 7.67 µM (active)
EC50 [20]: > 160 µM (inactive)
AC50 [21]: < 0.1 µM (active)

O=C(NN=Cc1ccccc1O)NN=Cc1ccccc1O
IC50 [22]: 3.93 µM (active)
IC50 [23]: 10.1 µM (active)
IC50 [24]: 4.05 µM (active)

C/C(N)=C(/C#N)C(=O)CSc1nn(-c2ccc(Cl)cc2)c(=S)s1
CC50 [25]: 15.9 µM (active)
IC50 [26]: 155 µM (inactive)

C=CC(=O)Nc1cccc(Oc2[nH]cnc3ncc(-c4cnc5ccccc5c4)c2-3)c1
IC50 (Interleukin-8 [27]): 3.39 µM (active)
IC50 (Interleukin-8 [28]): 2.52 µM (active)

C/C=C(/C)C(=O)OC(C)(C)[C@@H]1Cc2c(ccc3ccc(=O)oc23)O1 [COLUMBIANADIN]
AC50 [29]: 0.389 µM (active)
